{
  "source": "patent US6355799B1",
  "about": "“Substituted benzene compounds, process for their preparation, and herbicidal and defoliant compositions containing them” (ISK Americas Incorporated, priority 1997, dated 2002)",
  "format_in_all_cases": "in vivo",
  "key": {"[1]": {"tested_on": "redroot pigweed (Amaranthus retroflexus, AMARE)", "test": "Pre-emerge test, greenhouse herbicide activity screening", "conditions": "phytotoxicity rating 0-100, 14 days after application", "outline": "(§1)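 Plants grown in 10 cm pots of sandy loam mix received acetone-dissolved compounds through a moving flat-fan nozzle. Doses ranged from 15 to 1000 g ai/ha. Pre-emerge pots were seeded one day earlier, post-emerge pots 8–21 days earlier. Fourteen days on, each pot was graded 0–100 for damage.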"}, "[2]": {"tested_on": "barnyardgrass (Echinochloa crus-galli, ECHCG)", "test": "Pre-emerge test, greenhouse herbicide activity screening", "conditions": "phytotoxicity rating 0-100, 14 days after application", "outline": "(§2)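 Visual ratings on a 0-100 scale (0 no damage, 100 all plants dead) were taken at 14 days after treatment. Rates of 15-1000 g ai/ha in acetone, 187 l/ha, were sprayed onto soil one day after planting (pre-emerge) or onto 2-3 leaf plants with 0.25% v/v surfactant (post-emerge).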"}, "[3]": {"tested_on": "green foxtail (Setaria viridis, SETVI)", "test": "Pre-emerge test, greenhouse herbicide activity screening", "conditions": "phytotoxicity rating 0-100, 14 days after application", "outline": "as §2"}, "[4]": {"tested_on": "ivyleaf morningglory (Ipomoea hederacea, IPOHE)", "test": "Pre-emerge test, greenhouse herbicide activity screening", "conditions": "phytotoxicity rating 0-100, 14 days after application", "outline": "as §2"}, "[5]": {"tested_on": "johnsongrass (Sorghum halepense, SORHA)", "test": "Pre-emerge test, greenhouse herbicide activity screening", "conditions": "phytotoxicity rating 0-100, 14 days after application", "outline": "as §2"}, "[6]": {"tested_on": "lambsquarters (Chenopodium album, CHEAL)", "test": "Pre-emerge test, greenhouse herbicide activity screening", "conditions": "phytotoxicity rating 0-100, 14 days after application", "outline": "as §2"}, "[7]": {"tested_on": "large crabgrass (Digitaria sanguinalis, DIGSA)", "test": "Pre-emerge test, greenhouse herbicide activity screening", "conditions": "phytotoxicity rating 0-100, 14 days after application", "outline": "as §2"}, "[8]": {"tested_on": "sicklepod (Cassia obtusifolia, CASOB)", "test": "Pre-emerge test, greenhouse herbicide activity screening", "conditions": "phytotoxicity rating 0-100, 14 days after application", "outline": "as §2"}, "[9]": {"tested_on": "velvetleaf (Abutilon theophrasti, ABUTH)", "test": "Pre-emerge test, greenhouse herbicide activity screening", "conditions": "phytotoxicity rating 0-100, 14 days after application", "outline": "as §2"}, "[10]": {"tested_on": "field corn (Zea mays L., var. Dekalb 535, CORN)", "test": "Pre-emerge test, crop safety", "conditions": "crop damage rating 0-100, 14 days after application", "outline": "as §1"}, "[11]": {"tested_on": "upland rice (Oryza sp., var. Tebonnet, RICE)", "test": "Pre-emerge test, crop safety", "conditions": "crop damage rating 0-100, 14 days after application", "outline": "as §1"}, "[12]": {"tested_on": "barnyardgrass (Echinochloa crus-galli, ECHCG)", "test": "Post-emerge test, greenhouse herbicide activity screening", "conditions": "post-emerge, 14 days after application, rating scale 0-100", "outline": "(§3)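 Each test used a mechanized track sprayer delivering 187 l/ha of acetone solution at 15–1000 g ai/ha. Post-emerge foliage at 2–3 leaves was treated with added 0.25% v/v non-ionic surfactant and bottom-watered only. Injury was assessed on day 14, where 100 means total kill.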"}, "[13]": {"tested_on": "green foxtail (Setaria viridis, SETVI)", "test": "Post-emerge test, greenhouse herbicide activity screening", "conditions": "post-emerge, 14 days after application, rating scale 0-100", "outline": "as §3"}, "[14]": {"tested_on": "ivyleaf morningglory (Ipomoea hederacea, IPOHE)", "test": "Post-emerge test, greenhouse herbicide activity screening", "conditions": "post-emerge, 14 days after application, rating scale 0-100", "outline": "as §3"}, "[15]": {"tested_on": "johnsongrass (Sorghum halepense, SORHA)", "test": "Post-emerge test, greenhouse herbicide activity screening", "conditions": "post-emerge, 14 days after application, rating scale 0-100", "outline": "as §3"}, "[16]": {"tested_on": "lambsquarters (Chenopodium album, CHEAL)", "test": "Post-emerge test, greenhouse herbicide activity screening", "conditions": "post-emerge, 14 days after application, rating scale 0-100", "outline": "as §3"}, "[17]": {"tested_on": "large crabgrass (Digitaria sanguinalis, DIGSA)", "test": "Post-emerge test, greenhouse herbicide activity screening", "conditions": "post-emerge, 14 days after application, rating scale 0-100", "outline": "as §3"}, "[18]": {"tested_on": "redroot pigweed (Amaranthus retroflexus, AMARE)", "test": "Post-emerge test, greenhouse herbicide activity screening", "conditions": "post-emerge, 14 days after application", "outline": "as §3"}, "[19]": {"tested_on": "sicklepod (Cassia obtusifolia, CASOB)", "test": "Post-emerge test, greenhouse herbicide activity screening", "conditions": "post-emerge, 14 days after application, rating scale 0-100", "outline": "as §3"}, "[20]": {"tested_on": "velvetleaf (Abutilon theophrasti, ABUTH)", "test": "Post-emerge test, greenhouse herbicide activity screening", "conditions": "post-emerge, 14 days after application, rating scale 0-100", "outline": "as §3"}, "[21]": {"tested_on": "field corn (Zea mays L., var. Dekalb 535, CORN)", "test": "Post-emerge test, crop safety", "conditions": "post-emerge, 14 days after application, rating scale 0-100", "outline": "as §2"}, "[22]": {"tested_on": "upland rice (Oryza sp., var. Tebonnet, RICE)", "test": "Post-emerge test, crop safety", "conditions": "post-emerge, 14 days after application, rating scale 0-100", "outline": "as §2"}},
  "data": [
    {"molecule": "COc1c(Cl)cc(F)c(-n2c(=O)cc(C(F)(F)F)n(C)c2=O)c1NC(=O)C1CC1", "note": "[2-206]", "values": [
      {"measurement": "Pre-emerge Herbicidal Activity AMARE", "setting": "[1]; 63 g ai/ha", "value": 0},
      {"measurement": "Pre-emerge Herbicidal Activity AMARE", "setting": "[1]; 250 g ai/ha", "value": 80},
      {"measurement": "Pre-emerge Herbicidal Activity ECHCG", "setting": "[2]; 63 g ai/ha", "value": 0},
      {"measurement": "Pre-emerge Herbicidal Activity ECHCG", "setting": "[2]; 250 g ai/ha", "value": 90},
      {"measurement": "Pre-emerge Herbicidal Activity SETVI", "setting": "[3]; 63 g ai/ha", "value": 0},
      {"measurement": "Pre-emerge Herbicidal Activity SETVI", "setting": "[3]; 250 g ai/ha", "value": 70},
      {"measurement": "Pre-emerge Herbicidal Activity IPOHE", "setting": "[4]; 63 g ai/ha", "value": 50},
      {"measurement": "Pre-emerge Herbicidal Activity IPOHE", "setting": "[4]; 250 g ai/ha", "value": 90},
      {"measurement": "Pre-emerge Herbicidal Activity SORHA", "setting": "[5]; 63 g ai/ha", "value": 0},
      {"measurement": "Pre-emerge Herbicidal Activity SORHA", "setting": "[5]; 250 g ai/ha", "value": 40},
      {"measurement": "Pre-emerge Herbicidal Activity CHEAL", "setting": "[6]; 63 g ai/ha", "value": 50},
      {"measurement": "Pre-emerge Herbicidal Activity CHEAL", "setting": "[6]; 250 g ai/ha", "value": 100},
      {"measurement": "Pre-emerge Herbicidal Activity DIGSA", "setting": "[7]; 63 g ai/ha", "value": 0},
      {"measurement": "Pre-emerge Herbicidal Activity DIGSA", "setting": "[7]; 250 g ai/ha", "value": 80},
      {"measurement": "Pre-emerge Herbicidal Activity CASOB", "setting": "[8]; 63 g ai/ha", "value": 20},
      {"measurement": "Pre-emerge Herbicidal Activity CASOB", "setting": "[8]; 250 g ai/ha", "value": 60},
      {"measurement": "Pre-emerge Herbicidal Activity ABUTH", "setting": "[9]; 63 g ai/ha", "value": 70},
      {"measurement": "Pre-emerge Herbicidal Activity ABUTH", "setting": "[9]; 250 g ai/ha", "value": 100},
      {"measurement": "Pre-emerge Herbicidal Activity CORN", "setting": "[10]; 63 g ai/ha", "value": 50},
      {"measurement": "Pre-emerge Herbicidal Activity CORN", "setting": "[10]; 250 g ai/ha", "value": 100},
      {"measurement": "Pre-emerge Herbicidal Activity RICE", "setting": "[11]; 63 g ai/ha", "value": 60},
      {"measurement": "Pre-emerge Herbicidal Activity RICE", "setting": "[11]; 250 g ai/ha", "value": 80},
      {"measurement": "phytotoxicity rating ECHCG", "setting": "[12]; 63 g ai/ha", "value": 0},
      {"measurement": "phytotoxicity rating ECHCG", "setting": "[12]; 250 g ai/ha", "value": 30},
      {"measurement": "phytotoxicity rating SETVI", "setting": "[13]; 63 g ai/ha", "value": 0},
      {"measurement": "phytotoxicity rating SETVI", "setting": "[13]; 250 g ai/ha", "value": 0},
      {"measurement": "phytotoxicity rating IPOHE", "setting": "[14]; 63 g ai/ha", "value": 70},
      {"measurement": "phytotoxicity rating IPOHE", "setting": "[14]; 250 g ai/ha", "value": 90},
      {"measurement": "phytotoxicity rating SORHA", "setting": "[15]; 63 g ai/ha", "value": 0},
      {"measurement": "phytotoxicity rating SORHA", "setting": "[15]; 250 g ai/ha", "value": 0},
      {"measurement": "phytotoxicity rating CHEAL", "setting": "[16]; 63 g ai/ha", "value": 50},
      {"measurement": "phytotoxicity rating CHEAL", "setting": "[16]; 250 g ai/ha", "value": 70},
      {"measurement": "phytotoxicity rating DIGSA", "setting": "[17]; 63 g ai/ha", "value": 30},
      {"measurement": "phytotoxicity rating DIGSA", "setting": "[17]; 250 g ai/ha", "value": 20},
      {"measurement": "phytotoxicity rating AMARE", "setting": "[18]; 63 g ai/ha, rating scale 0-100 (0 no damage, 100 complete death)", "value": 20},
      {"measurement": "phytotoxicity rating AMARE", "setting": "[18]; 250 g ai/ha, rating scale 0-100", "value": 50},
      {"measurement": "phytotoxicity rating CASOB", "setting": "[19]; 63 g ai/ha", "value": 50},
      {"measurement": "phytotoxicity rating CASOB", "setting": "[19]; 250 g ai/ha", "value": 80},
      {"measurement": "phytotoxicity rating ABUTH", "setting": "[20]; 63 g ai/ha", "value": 50},
      {"measurement": "phytotoxicity rating ABUTH", "setting": "[20]; 250 g ai/ha", "value": 90},
      {"measurement": "phytotoxicity rating CORN (crop damage)", "setting": "[21]; 63 g ai/ha", "value": 0},
      {"measurement": "phytotoxicity rating CORN (crop damage)", "setting": "[21]; 250 g ai/ha", "value": 0},
      {"measurement": "phytotoxicity rating RICE (crop damage)", "setting": "[22]; 63 g ai/ha", "value": 0},
      {"measurement": "phytotoxicity rating RICE (crop damage)", "setting": "[22]; 250 g ai/ha", "value": 70}
    ]}
  ]
}
